Laboratory results from patent US12370162B1 (Rplushealth Limited, priority 2024, dated 2025).

Legend:
[1] = tested on: A431, MCF-7, HeLa, HepG2, PC3, SKOV3, A549, U251, K562, and Caco-2 tumor cells; assay: Transwell migration assay with serine/glycine at different levels; assay type: cell-based; conditions: low serine level or low glycine level compared to high serine and glycine levels
[2] = tested on: A431, MCF-7, HeLa, HepG2, PC3, SKOV3, A549, U251, K562, and Caco-2 tumor cells; assay: MTT assay, tumor cell growth with serine/glycine at different levels; assay type: cell-based; conditions: low serine level or low glycine level compared to high serine and glycine levels; 48 hours culture

Question: Which “migration capability (Transwell, metastasis %)” value [1] does the source give for `NCC(=O)O` [glycine] here?
Answer: relatively high migration capability

Question: What about the “cell growth (MTT, growth %)” value [2] of the same compound?
Answer: grew slowly

Question: Which results are given for `N[C@@H](CO)C(=O)O` [serine]?
Answer: migration capability (Transwell, metastasis %) [1]: relatively high migration capability; cell growth (MTT, growth %) [2]: grew slowly
